Measurements from paper PMC10066365, “Nemacol is a small molecule inhibitor of C. elegans vesicular acetylcholine transporter with anthelmintic potential” (Nature Communications, 2023).
Several values for one entry are separate records, joined by “and”; a condition that tells them apart may be missing. Identical values can stand only once. Like-named read-outs stand apart in the source and are kept apart here.

Tested on: C. elegans unc-17 mutants
[1] = unc-17 (e245), 60 µM, 60 min, single Bio Rep
[2] = unc-17 (e327), 15 µM, 60 min, single Bio Rep
[3] = unc-17 (e327), 30 µM, 60 min, single Bio Rep
[4] = unc-17 (e327), 60 µM, 60 min, single Bio Rep
[5] = unc-17 (e795), 15 µM, 60 min, average of 3 biological repeats
[6] = unc-17 (e795), 15 µM, young adult, average of 3 biological repeats
[7] = unc-17 (e795), 30 µM, young adult, average of 3 biological repeats
[8] = unc-17 (e795), 60 µM, young adult, average of 3 biological repeats
[9] = unc-17 (md414), 15 µM, 60 min, adult worms, average of 3 biological repeats
[10] = unc-17 (md414), 30 µM, 60 min, average of 3 biological repeats
[11] = unc-17 (md414), 60 µM, 60 min, average of 3 biological repeats
[12] = unc-17 (md414), 15 µM, 60 min, single Bio Rep
[13] = unc-17 (md414), 30 µM, 60 min, single Bio Rep
[14] = unc-17 (md414), 60 µM, 60 min, single Bio Rep

Method: Significance was calculated using Fisher’s method (one-sided comparisons; see 'Methods'). […] Worms were incubated on the plates for 60 min.
Locomotor phenotype analyses were done in 24-well plates with 1 mL of MYOB substrate (27.5 g Trizma HCl, 12 g Trizma Base, 230 g bacto tryptone, 10 g NaCl, 0.4 g cholesterol (95%)) seeded with 25 µL of OP50 Escherichia coli on each well. Each compound was added to the MYOB substrate before pouring to achieve the desired final concentrations of 30 µM or 60 µM after diffusion through the media. Synchronized young adult worms are transferred into each well using a platinum wire pick. A Leica MZ75 stereomicroscope was used to visualize the movement of worms on the solid substrate. The specific dominant locomotor phenotype (i.e. ‘Punc’, ‘paralyzed’, ‘coiler’ or ‘wild-type locomotion’) was scored after the touch on the head with a platinum wire over a ~3–5 s of observation. […] Coiled animals were not scored as paralyzed despite sometimes not responding to light touch.

Compound: O=[N+]([O-])c1ccc(N2CCN(CC3CCCCC3)CC2)cc1 [Nemacol-1]
- Fraction Coiled [1]: 0.83 and 0.89 and 0.56
- Fraction No Phenotype [1]: 0.00
- NP (no phene) worm count [1]: 0
- Fraction Coiled, Averages of 3 biological repeats (unc-17 (e327), 15 µM, 60 min): 0.77
- Fraction Jerky-Unc, Averages of 3 biological repeats (unc-17 (e327), 15 µM, 60 min): 0.15
- Fraction No Phenotype, Averages of 3 biological repeats (unc-17 (e327), 15 µM, 60 min): 0.00
- Fraction Parayzed, Averages of 3 biological repeats (unc-17 (e327), 15 µM, 60 min): 0.08
- C1 (loose coil) worm count [2]: 3 and 4
- C2 (tight coil) worm count [2]: 10 and 12 and 8
- Fraction Coiled [2]: 0.75 and 0.72 and 0.83
- Fraction Jerky-Unc [2]: 0.125 and 0.1667
- Fraction No Phenotype [2]: 0.00
- J (jerky-unc) worm count [2]: 3 and 2
- NP (no phene) worm count [2]: 0
- Fraction Coiled, Averages of 3 biological repeats (unc-17 (e327), 30 µM, 60 min): 0.66
- Fraction Jerky-Unc, Averages of 3 biological repeats (unc-17 (e327), 30 µM, 60 min): 0.12
- Fraction No Phenotype, Averages of 3 biological repeats (unc-17 (e327), 30 µM, 60 min): 0.00
- Fraction Parayzed, Averages of 3 biological repeats (unc-17 (e327), 30 µM, 60 min): 0.23
- C1 (loose coil) worm count [3]: 2 and 4
- C2 (tight coil) worm count [3]: 8 and 9 and 7
- Fraction Coiled [3]: 0.69 and 0.56 and 0.72
- Fraction No Phenotype [3]: 0.00
- NP (no phene) worm count [3]: 0
- Fraction Coiled, Averages of 3 biological repeats (unc-17 (e327), 60 µM, 60 min): 0.48
- Fraction Jerky-Unc, Averages of 3 biological repeats (unc-17 (e327), 60 µM, 60 min): 0.037
- Fraction No Phenotype, Averages of 3 biological repeats (unc-17 (e327), 60 µM, 60 min): 0.00
- Fraction Parayzed, Averages of 3 biological repeats (unc-17 (e327), 60 µM, 60 min): 0.48
- C1 (loose coil) worm count [4]: 4 and 3 and 2
- Fraction No Phenotype [4]: 0.00
- NP (no phene) worm count [4]: 0
- P (paralyzed) worm count [4]: 8 and 6 and 12
- Fraction Coiled [5]: 0.81
- Fraction Jerky-Unc [5]: 0.09
- Fraction No Phenotype [5]: 0.00
- Fraction Parayzed [5]: 0.09
- Fraction Coiled [6]: 0.74
- Fraction Jerky-Unc [6]: 0.24
- Fraction No Phenotype [6]: 0.00
- Fraction Parayzed [6]: 0.0185
- Fraction Coiled [7]: 0.83
- Fraction Jerky-Unc [7]: 0.0556
- Fraction No Phenotype [7]: 0.00
- Fraction Parayzed [7]: 0.11
- Fraction Coiled [8]: 0.63
- Fraction Jerky-Unc [8]: 0.0556
- Fraction No Phenotype [8]: 0.00
- Fraction Parayzed [8]: 0.31
- Fraction Coiled [9]: 0.19
- Fraction Jerky-Unc [9]: 0.60
- Fraction No Phenotype [9]: 0.21
- Fraction Parayzed [9]: 0.00
- Fraction Coiled [10]: 0.44
- Fraction Jerky-Unc [10]: 0.47
- Fraction No Phenotype [10]: 0.037
- Fraction Parayzed [10]: 0.06
- Fraction Coiled [11]: 0.59
- Fraction Jerky-Unc [11]: 0.27
- Fraction No Phenotype [11]: 0.00
- Fraction Parayzed [11]: 0.13
- Fraction Coiled, Averages of 3 biological repeats (unc-17 (md414), 15 µM, 60 min): 0.25
- Fraction Jerky-Unc, Averages of 3 biological repeats (unc-17 (md414), 15 µM, 60 min): 0.52
- Fraction No Phenotype, Averages of 3 biological repeats (unc-17 (md414), 15 µM, 60 min): 0.23
- Fraction Parayzed, Averages of 3 biological repeats (unc-17 (md414), 15 µM, 60 min): 0.00
- C1 (loose coil) worm count [12]: 1 and 2
- Fraction Jerky-Unc [12]: 0.35 and 0.6111 and 0.5882
- Fraction Parayzed [12]: 0
- J (jerky-unc) worm count [12]: 11 and 7 and 10
- P (paralyzed) worm count [12]: 0
- Fraction Coiled, Averages of 3 biological repeats (unc-17 (md414), 30 µM, 60 min): 0.54
- Fraction Jerky-Unc, Averages of 3 biological repeats (unc-17 (md414), 30 µM, 60 min): 0.44
- Fraction No Phenotype, Averages of 3 biological repeats (unc-17 (md414), 30 µM, 60 min): 0.00
- Fraction Parayzed, Averages of 3 biological repeats (unc-17 (md414), 30 µM, 60 min): 0.0185
- C1 (loose coil) worm count [13]: 4 and 2 and 3
- C2 (tight coil) worm count [13]: 5 and 8 and 6
- Fraction Coiled [13]: 0.50 and 0.63
- Fraction Jerky-Unc [13]: 0.5 and 0.4444 and 0.375
- Fraction No Phenotype [13]: 0.00
- J (jerky-unc) worm count [13]: 8 and 9 and 6
- NP (no phene) worm count [13]: 0
- Fraction Coiled, Averages of 3 biological repeats (unc-17 (md414), 60 µM, 60 min): 0.49
- Fraction Jerky-Unc, Averages of 3 biological repeats (unc-17 (md414), 60 µM, 60 min): 0.28
- Fraction No Phenotype, Averages of 3 biological repeats (unc-17 (md414), 60 µM, 60 min): 0.00
- Fraction Parayzed, Averages of 3 biological repeats (unc-17 (md414), 60 µM, 60 min): 0.22
- C2 (tight coil) worm count [14]: 6
- Fraction Coiled [14]: 0.56 and 0.59 and 0.33
- Fraction No Phenotype [14]: 0.00
- J (jerky-unc) worm count [14]: 6 and 3
- NP (no phene) worm count [14]: 0
